pIC50: −log10 of the molar value.
What was measured:
[1] = molecular target: human JAK2 (Homo sapiens (Human), UniProt O60674); conditions: read-out: JAK2 IC50
[2] = molecular target: human FAK (Homo sapiens (Human), UniProt Q05397); conditions: read-out: FAK IC50
human FAK, sequence (Q05397 whole entry): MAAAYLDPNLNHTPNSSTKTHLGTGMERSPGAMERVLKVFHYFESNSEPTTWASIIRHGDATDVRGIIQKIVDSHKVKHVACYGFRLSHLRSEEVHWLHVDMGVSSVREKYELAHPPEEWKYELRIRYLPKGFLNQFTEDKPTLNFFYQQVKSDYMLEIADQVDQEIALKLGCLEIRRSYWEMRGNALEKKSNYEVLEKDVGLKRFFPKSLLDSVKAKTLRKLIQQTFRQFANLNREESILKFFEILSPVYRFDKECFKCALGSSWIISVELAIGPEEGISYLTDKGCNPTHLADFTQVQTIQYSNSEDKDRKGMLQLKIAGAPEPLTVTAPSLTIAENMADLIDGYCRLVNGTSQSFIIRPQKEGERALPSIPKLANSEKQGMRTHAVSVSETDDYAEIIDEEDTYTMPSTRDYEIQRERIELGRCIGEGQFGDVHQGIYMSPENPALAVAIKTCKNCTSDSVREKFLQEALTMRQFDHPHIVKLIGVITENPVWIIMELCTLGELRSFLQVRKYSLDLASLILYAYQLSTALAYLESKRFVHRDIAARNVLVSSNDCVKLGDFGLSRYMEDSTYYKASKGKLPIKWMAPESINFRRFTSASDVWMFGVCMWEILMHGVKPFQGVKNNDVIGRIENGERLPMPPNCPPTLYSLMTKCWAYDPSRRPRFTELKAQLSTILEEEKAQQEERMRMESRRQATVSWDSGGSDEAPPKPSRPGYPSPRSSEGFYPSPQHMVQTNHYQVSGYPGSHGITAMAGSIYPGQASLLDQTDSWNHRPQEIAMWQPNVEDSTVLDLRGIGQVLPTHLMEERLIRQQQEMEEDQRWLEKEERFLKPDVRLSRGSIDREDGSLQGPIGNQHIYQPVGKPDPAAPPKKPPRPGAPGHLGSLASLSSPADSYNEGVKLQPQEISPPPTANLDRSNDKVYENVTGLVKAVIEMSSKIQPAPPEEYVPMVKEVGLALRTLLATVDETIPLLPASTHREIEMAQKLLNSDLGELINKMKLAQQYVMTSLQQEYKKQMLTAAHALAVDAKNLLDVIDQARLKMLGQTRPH

human JAK2, sequence (O60674 815-1132): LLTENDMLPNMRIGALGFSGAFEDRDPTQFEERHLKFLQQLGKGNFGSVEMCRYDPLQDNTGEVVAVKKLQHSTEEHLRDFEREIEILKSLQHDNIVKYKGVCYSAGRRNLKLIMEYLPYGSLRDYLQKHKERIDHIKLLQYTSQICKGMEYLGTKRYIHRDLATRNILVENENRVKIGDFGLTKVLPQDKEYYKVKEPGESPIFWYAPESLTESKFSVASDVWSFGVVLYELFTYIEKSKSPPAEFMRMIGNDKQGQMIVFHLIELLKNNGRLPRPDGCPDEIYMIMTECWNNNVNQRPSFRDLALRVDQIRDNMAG

Compound	pIC50 [1]	pIC50 [2]
CCN1CCN(c2cccc(Nc3nc4c(-c5ccc(P(C)(C)=O)cc5)cccn4n3)c2)C(=O)C1 [Example 208, 1-(3-{8-[4-(Dimethyl-phosphinoyl)-phenyl]-[1,2,4]triazolo[1,5-a]pyridin-2-ylamino}-phenyl)-4-ethyl-piperazin-2-one]	7.88	5.00
CCn1cc(Nc2nc3c(-c4ccc(S(C)(=O)=O)cc4)cccn3n2)cn1 [Example 209, (1-Ethyl-1H-pyrazol-4-yl)-[8-(4-methanesulfonyl-phenyl)-[1,2,4]triazolo[1,5-a]pyridin-2-yl]-amine]	8.73	5.00
CCn1cc(Nc2nc3c(Oc4ccc(S(C)(=O)=O)cc4)cccn3n2)cn1 [Example 211, (1-Ethyl-1H-pyrazol-4-yl)-[8-(4-methanesulfonyl-phenoxy)-[1,2,4]triazolo[1,5-a]pyridin-2-yl]-amine]	5.94	5.00
CC(C)(C)OC(=O)N1CCC(n2cc(Nc3nc4c(-c5ccc(S(C)(=O)=O)cc5)cccn4n3)cn2)CC1 [Example 212, 4-{4-[8-(4-Methanesulfonyl-phenyl)-[1,2,4]triazolo[1,5-a]pyridin-2-ylamino]-pyrazol-1-yl}-piperidin-1-carboxylic acid tert-butyl ester]	9.30	5.52
CS(=O)(=O)c1ccc(-c2cccn3nc(Nc4cnn(C5CCNCC5)c4)nc23)cc1 [Example 213, [8-(4-Methanesulfonyl-phenyl)-[1,2,4]triazolo[1,5-a]pyridin-2-yl]-(1-piperidin-4-yl-1H-pyrazol-4-yl)-amine]	9.15	5.52
FC(F)(F)c1ccc(-c2cccn3nc(Nc4cnn(CCN5CCCC5)c4)nc23)cc1 [Example 216, [1-(2-Pyrrolidin-1-yl-ethyl)-1H-pyrazol-4-yl]-[8-(4-trifluoromethyl-phenyl)-[1,2,4]triazolo[1,5-a]pyridin-2-yl]-amine]	8.04	5.00
CS(=O)(=O)c1ccc(Oc2cccn3nc(Nc4cnn(CCN5CCCC5)c4)nc23)cc1 [Example 217, [8-(4-Methanesulfonyl-phenoxy)-[1,2,4]triazolo[1,5-a]pyridin-2-yl]-(1-(2-pyrrolidin-1-yl-ethyl)-1H-pyrazol-4-yl]-amine]	5.52	5.91
CS(=O)(=O)c1ccc(-c2cccn3nc(Nc4cnn(CCN5CCCC5)c4)nc23)cc1 [Example 219, [8-(4-Methanesulfonyl-phenyl)-[1,2,4]triazolo[1,5-a]pyridin-2-yl]-(1-(2-pyrrolidin-1-yl-ethyl)-1H-pyrazol-4-yl]-amine]	7.86	5.00
COCc1ccccc1-c1cccc2nc(Nc3ccc4c(c3)CCN(C(=O)OC(C)(C)C)CC4)nn12 [Example 226, 7-[5-(2-Methoxymethyl-phenyl)-[1,2,4]triazolo[1,5-a]pyridin-2-ylamino]-1,2,4,5-tetrahydro-benzo[d]azepine-3-carboxylic acid tert-butyl ester]	6.19	5.00
COCc1ccccc1-c1cccc2nc(Nc3ccc4c(c3)CCN(CC(=O)N(C)C)CC4)nn12 [Example 229, 2-{7-[5-(2-Methoxymethyl-phenyl)-[1,2,4]triazolo[1,5-a]pyridin-2-ylamino]-1,2,4,5-tetrahydro-benzo[d]azepin-3-yl}-N,N-dimethyl-acetamide]	7.32	5.52
COCc1ccccc1-c1cccc2nc(Nc3ccc4c(c3)CCN(CCS(C)(=O)=O)CC4)nn12 [Example 230, [3-(2-Methanesulfonyl-ethyl)-2,3,4,5-tetrahydro-1H-benzo[d]azepin-7-yl]-[5-(2-methoxymethyl-phenyl)-[1,2,4]triazolo[1,5-a]pyridin-2-yl]-amine]	7.56	5.70
COc1ccc(C(F)(F)F)cc1-c1cccc2nc(Nc3ccc4c(c3)CCNCC4)nn12 [Example 234, [5-(2-Methoxy-5-trifluoromethyl-phenyl)-[1,2,4]triazolo[1,5-a]pyridine-2-yl]-(2,3,4,5-tetrahydro-1H-benzo[d]azepin-7-yl)-amine]	7.63	6.26
COc1ccc(C(F)(F)F)cc1-c1cccc2nc(Nc3ccc4c(c3)CCN(CCSC)CC4)nn12 [Example 235, [5-(2-Methoxy-5-trifluoromethyl-phenyl)-[1,2,4]triazolo[1,5-a]pyridin-2-yl]-(3-(2-methylsulfanyl-ethyl)-2,3,4,5-tetrahydro-1H-3-benzazepin-7-yl]-amine]	7.57	6.87
COc1ccc(C(F)(F)F)cc1-c1cccc2nc(Nc3ccc4c(c3)CCN(CC(=O)N(C)C)CC4)nn12 [Example 237]	7.27	6.15
CCOc1ccccc1-c1cccn2nc(Nc3ccc4c(c3)CCN(CCS(C)(=O)=O)CC4)nc12 [Example 245]	7.15	5.00
CCOc1ccccc1-c1cccn2nc(Nc3ccc4c(c3)CCN(CC(=O)N(C)C)CC4)nc12 [Example 246]	6.67	5.00
CS(=O)(=O)CCN1CCc2ccc(Nc3nc4c(-c5cccc6c5OC(F)(F)O6)cccn4n3)cc2CC1 [Example 247, [8-(2,2-difluoro-1,3-benzodioxol-4-yl)-[1,2,4]triazolo[1,5-a]pyridin-2-yl]-[3-(2-methanesulfonyl-ethyl)-2,3,4,5-tetrahydro-1H-3-benzazepin-7-yl)amine]	7.61	5.70
CN(C)C(=O)CN1CCc2ccc(Nc3nc4c(-c5cccc6c5OC(F)(F)O6)cccn4n3)cc2CC1 [Example 248, 2-(7-[8-(2,2-difluoro-1,3-benzodioxol-4-yl)-[1,2,4]triazolo[1,5-a]pyridin-2-yl-amino]-1,2,4,5-tetrahydro-3-benzazepin-3-yl)-N—N-dimethyl-acetamide]	7.52	5.77
COc1ccc(C(F)(F)F)cc1-c1cccn2nc(Nc3ccc(N4CCN(C)CC4)cc3)nc12 [Example 254, [8-(2-Methoxy-5-trifluoromethyl-phenyl)-[1,2,4]triazolo[1,5-a]pyridin-2-yl]-[4-(4-methyl-piperazine-1-yl)-phenyl]-amine]	7.50	5.97
COc1ccc(C(F)(F)F)cc1-c1cccn2nc(Nc3cccc(N4CCN(C)CC4)c3)nc12 [Example 255, [8-(2-Methoxy-5-trifluoromethyl-phenyl)-[1,2,4]triazolo[1,5-a]pyridin-2-yl]-[3-(4-methyl-piperazine-1-yl)-phenyl]-amine]	6.80	5.92
COc1ccc(C(F)(F)F)cc1-c1cccn2nc(Nc3cccc(C4CCNCC4)c3)nc12 [Example 257, [8-(2-Methoxy-5-trifluoromethyl-phenyl)-[1,2,4]triazolo[1,5-a]pyridin-2-yl]-(3-piperidin-4-yl-phenyl)-amine]	7.54	6.32
COc1ccc(C(F)(F)F)cc1-c1cccn2nc(Nc3ccc(OCCN4CCOCC4)cc3)nc12 [Example 258, [8-(2-Methoxy-5-trifluoromethyl-phenyl)-[1,2,4]triazolo[1,5-a]pyridin-2-yl]-[4-(2-morpholin-4-yl-ethoxy)-phenyl]-amine]	7.07	5.19
COc1ccc(C(F)(F)F)cc1-c1cccn2nc(Nc3ccc(OCCN4CCCC4)cc3)nc12 [Example 259, [8-(2-Methoxy-5-trifluoromethyl-phenyl)-[1,2,4]triazolo[1,5-a]pyridin-2-yl]-[4-(2-pyrrolidin-1-yl-ethoxy)-phenyl]-amine]	7.13	5.47

— patent US8501936B2 (priority 2009, dated 2013)
